# Measurements: US20050009903A1, “CB2-selective cannabinoid analogues” (priority 2003, published 2005)
# Where “and” joins values, the source holds several entries; their conditions need not be identical. Equal entries are not always repeated. Where two headings read alike, the source gives them in different places.
# Columns and labels:
# [1] = molecular target: T1, CB2 receptor (Homo sapiens, UniProt P34972); assay: [35S]GTPγS binding in human CB2 receptor-expressing CHO cell membranes; format: biochemical; design: expressed in transfected cells; conditions: for efficacy in the [35S]GTPγS assay relative to CP-55,940: in words
# [2] = molecular target: T2, CB1 receptor (Rattus norvegicus, UniProt P20272); assay: CB1 assay: displacement of [3H]CP-55,940 from rat brain membrane preparation; format: binding
# T2 construct: from tissue; host or cells: rat whole brain, P2 membranes
# [3] = molecular target: T1, CB2 receptor; assay: CB2 assay: displacement of [3H]CP-55,940 from cloned human CB2 receptor preparation (transfected HEK 293 cells); format: binding; design: expressed in transfected cells; conditions: for selectivity for the CB2 receptor: CB2 over CB1 affinity; for Ratio CB1/CB2: Table 1; for Ratio CB1/CB2 / Ratio CB17CB2: ratio of Ki values
# [4] = molecular target: T2, CB1 receptor; conditions: cited from earlier work
# [5] = molecular target: T1, CB2 receptor; design: expressed in transfected cells; conditions: cited from earlier work
# [6] = system: mouse vas deferens; conditions: cited from earlier work
# [7] = molecular target: T1, CB2 receptor
# [8] = molecular target: CB1 receptor (Homo sapiens, UniProt P21554); conditions: Gareau et al.; cited from earlier work
# [9] = rat brain membranes, read-out: Ki at CB1 receptor
# [10] = Ki at CB2 receptor, cloned human CB2
# [11] = Table 3, mean ± SEM, 3-(alkoxy-1-naphthoyl)indoles, the same values as Ki in nM, read-out: CB2 (receptor affinity)
# [12] = Table 1, mean ± SEM, values marked ref 8, 19 or 20, read-out: Ki CB1
# [13] = previously reported by the applicants (literature refs), read-out: Ki at CB1 receptor
# [14] = previously reported by the applicants (literature refs), read-out: Ki at CB2 receptor
# [15] = read-out: Emax relative to CP-55,940
# [16] = Table 3, mean ± SEM, 3-(alkoxy-1-naphthoyl)indoles, the same values as Ki in nM, read-out: CB1 (receptor affinity)
# [17] = cloned human CB2, read-out: Ki at CB2 receptor
# [18] = read-out: CB1 (receptor affinity), Table 3, mean ± SEM, 3-(alkoxy-1-naphthoyl)indoles, the same values as Ki in nM
# [19] = Ki CB2, Table 1, mean ± SEM, cloned human CB2, [3H]CP 55,940
# [20] = Table 2, mean ± SEM, 3-(alkyl-1-naphthoyl)indoles, read-out: Ki CB1
# [21] = Table 2, mean ± SEM, 3-(alkyl-1-naphthoyl)indoles, read-out: Ki CB2
# T2 sequence (P20272 whole entry): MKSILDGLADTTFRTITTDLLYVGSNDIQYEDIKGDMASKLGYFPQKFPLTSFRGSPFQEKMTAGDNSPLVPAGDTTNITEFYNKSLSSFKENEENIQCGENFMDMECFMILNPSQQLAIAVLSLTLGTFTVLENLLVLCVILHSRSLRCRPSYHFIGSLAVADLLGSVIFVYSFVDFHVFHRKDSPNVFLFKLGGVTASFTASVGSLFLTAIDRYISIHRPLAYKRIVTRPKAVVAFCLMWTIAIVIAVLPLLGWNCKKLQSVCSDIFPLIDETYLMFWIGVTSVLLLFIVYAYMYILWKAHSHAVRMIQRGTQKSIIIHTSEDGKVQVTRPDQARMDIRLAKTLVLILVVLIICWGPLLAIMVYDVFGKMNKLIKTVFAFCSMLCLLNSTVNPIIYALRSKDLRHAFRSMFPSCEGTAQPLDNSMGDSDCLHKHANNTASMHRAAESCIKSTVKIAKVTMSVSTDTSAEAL
# T1 sequence (P34972 whole entry): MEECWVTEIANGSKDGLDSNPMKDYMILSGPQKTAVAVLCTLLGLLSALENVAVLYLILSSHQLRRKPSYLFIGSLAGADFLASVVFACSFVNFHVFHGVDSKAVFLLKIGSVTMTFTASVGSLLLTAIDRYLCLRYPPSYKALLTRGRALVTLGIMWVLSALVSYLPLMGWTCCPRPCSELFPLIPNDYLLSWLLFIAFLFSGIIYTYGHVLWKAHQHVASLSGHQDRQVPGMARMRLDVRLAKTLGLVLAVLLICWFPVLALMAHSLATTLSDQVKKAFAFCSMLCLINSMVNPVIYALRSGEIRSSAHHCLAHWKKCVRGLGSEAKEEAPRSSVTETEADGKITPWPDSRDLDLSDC
# Chain of CB1 receptor (Homo sapiens, UniProt P21554) (P21554 whole entry): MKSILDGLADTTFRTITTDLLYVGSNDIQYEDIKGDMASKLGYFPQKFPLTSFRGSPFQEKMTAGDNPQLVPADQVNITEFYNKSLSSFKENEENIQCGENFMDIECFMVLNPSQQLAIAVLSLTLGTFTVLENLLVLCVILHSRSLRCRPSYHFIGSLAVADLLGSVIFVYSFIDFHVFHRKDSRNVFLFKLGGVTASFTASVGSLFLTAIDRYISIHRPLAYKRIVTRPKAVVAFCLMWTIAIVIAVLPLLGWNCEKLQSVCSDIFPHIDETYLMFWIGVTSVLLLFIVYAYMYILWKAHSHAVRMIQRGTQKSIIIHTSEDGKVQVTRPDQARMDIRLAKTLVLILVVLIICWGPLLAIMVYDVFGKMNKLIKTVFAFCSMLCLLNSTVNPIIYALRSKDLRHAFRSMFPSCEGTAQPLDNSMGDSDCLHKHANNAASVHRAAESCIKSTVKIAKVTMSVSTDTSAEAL
compound,measurement,setting,value
"CCCCCn1cc(C(=O)c2c(OC)ccc3ccccc23)c2ccccc21 [JWH-267, 1-Pentyl-3-(2-methoxy-1-naphthoyl)indole]",EC50,[1],4.9 ± 0.8 nM
same,"efficacy in the [35S]GTPγS assay relative to CP-55,940",[1],partial agonists
same,Emax,[1]; read-out: Emax (% CP-55940),67.3 ± 2.9%
same,Ki,[2]; [9],381 ± 16 nM
same,selectivity for the CB2 receptor,[3],53 fold
same,Ki,[3]; [10],7.35 nM
same,Ki,[3]; [11],7.2 ± 0.14 nM
"CCCCCCC(C)(C)c1ccc2c(c1)OC(C)(C)C1CC=C(CO)CC21 (stereo not drawn) [Compound 1, 1-Deoxy-11-hydroxy-3-(1′,1′-dimethylheptyl)-Δ^8-THC]",Ki,[4]; [12],1.2 ± 0.1 nM
same,Ki,[4]; [13],1.2 nM
same,Ratio CB1/CB2,[3],40
same,Ki,"[5]; Table 1, mean ± SEM, values marked ref 30, 19 or 20, read-out: Ki CB2",0.03 ± 0.02 nM
same,Ki,[5]; [14],0.032 nM
COc1ccc(C(=O)c2c(C)n(CCN3CCOCC3)c3ccccc23)cc1 [pravadoline],contractions of electrically stimulated mouse vas deferens,[6],inhibited contractions
"CCCn1c(C)c(C(=O)c2cccc3ccccc23)c2ccccc21 [JWH-015, 2-Methyl-1-propyl-3-(1-naphthoyl)indole]",Emax,[1]; read-out: Emax (% CP-55940),65.7 ± 6.4%
same,Emax,[1]; [15],65.7 ± 6.4%
"CCCCCn1c(C)c(C(=O)c2cccc3ccccc23)c2ccccc21 [JWH-007, 1-pentyl-2-methyl-3-(1-naphthoyl)indole]",Ratio CB17CB2,[3]; Table 2,3.3
same,Ki,"[5]; read-out: Ki CB2, Table 2, mean ± SEM, values marked with literature refs",2 ± 2.6 nM
"CCCCCCC(C)(C)c1ccc2c(c1)OC(C)(C)C1CC=C(C)CC21 (stereo not drawn) [Compound 2, 1-Deoxy-3-(1′,1′-dimethylheptyl)-Δ^8-THC]",Ki,[4]; [12],22.8 ± 7.3 nM
same,Ki,[4]; [13],23 nM
same,Ratio CB1/CB2,[3],7.9
same,Ki,[5]; [14],2.9 nM
"CCCCCCC(C)(C)c1cc(OC)c2c(c1)OC(C)(C)[C@@H]1CC=C(C)C[C@@H]21 [Compound 4, 3-(1′,1′-Dimethylheptyl)-1-methoxy-Δ^8-THC, reference compound]",Ki,"[4]; read-out: Ki at CB1 receptor, previously reported by the applicants (literature refs)",924 ± 104 nM
same,Ki,[2],713 nM
same,Ki,[7]; read-out: Ki at CB2; Gareau et al.; cited from earlier work,~20 nM
same,Ki,[3]; [10],57 nM
same,Ratio CB1/CB2,[3],12 and 14
same,Ki at CB1,[8],virtually no affinity
same,Ki,"[5]; read-out: Ki at CB2 receptor, previously reported by the applicants (literature refs)",65 ± 8 nM
"CCCn1cc(C(=O)c2c(OC)ccc3ccccc23)c2ccccc21 [JWH-265, 1-Propyl-3-(2-methoxy-1-naphthoyl)indole]",melting point,,117 to 119 °C
same,Ki,[2]; [16],3790 ± 323 nM
same,Ki,[3]; [17],80 ± 13 nM
"1-Methoxy-3-(1′,1′-dimethylhexyl)-Δ^8-THC [Compound 6e]",EC50,"[1]; Table 4, mean ± SEM, human CB2 CHO cells, read-out: EC50 GTPγS binding",4.6 ± 2 nM
same,Emax (% CP-55940),"[1]; Table 4, mean ± SEM, per cent relative to 3 μM CP-55,940",75.7 ± 8.3 % CP-55940
"C=C1CCC2C(C1)c1c(OC)cc(C(C)(C)CCCCCC)cc1OC2(C)C (stereo not drawn) [Compound 5, 1-methoxy-66 ^9(11)-THC-DMH]",Ki,[7]; Gareau et al.; read-out: Ki at CB2; cited from earlier work,~20 nM
same,Ki at CB1,[8],virtually no affinity
"COc1cc(C(C)(C)C)cc2c1[C@@H]1CC(CO)=CC[C@H]1C(C)(C)O2 [Compound 11a, 1-Methoxy-3-(1′,1′-dimethylethyl)-11-hydroxy-Δ^8-THC]",Ki,[2],1860 ± 148 nM
same,Ki,[3]; [10],333 ± 104 nM
same,Ratio CB1/CB2,[3],5.6
"CCCn1cc(C(=O)c2cccc3ccc(C)cc23)c2ccccc21 [JWH-076, 1-Propyl-3-(7-methyl-1-naphthoyl)indole]",Ki,[2]; [9],214 ± 11 nM
same,Ratio CB17CB2,[3]; Table 2,2.0
same,Ki,[3]; [17],106 ± 46 nM
"CCCCCn1cc(C(=O)c2ccc(OCC)c3ccccc23)c2ccccc21 [JWH-258, 1-Pentyl-3-(4-ethoxy-1-naphthoyl)indole]",Ki,[2]; [9],4.6 ± 0.6 nM
same,Ki,[3]; [17],10.5 ± 1.3 nM
"CCCCCn1cc(C(=O)c2cccc3ccc(OC)cc23)c2ccccc21 [JWH-164, 1-Pentyl-3-(7-methoxy-1-naphthoyl)indole]",Ki,[2]; [9],6.6 ± 0.7 nM
same,Ki,[3]; [17],6.9 ± 0.2 nM
"CCCn1c(C)c(C(=O)c2c(OC)ccc3ccccc23)c2ccccc21 [JWH-266, 2-Methyl-1-propyl-3-(2-methoxy-1-naphthoyl)indole]",Ki,[2],> 10000 nM
same,Ki,[2]; [18],> 10000 nM
same,Ki,[3]; [10],455 ± 55 nM
"CCC(C)(C)c1ccc2c(c1)OC(C)(C)[C@@H]1CC=C(CO)C[C@@H]21 [Compound 9b, 1-Deoxy-3-(1′,1′-dimethylpropyl)-11-hydroxy-Δ^8-THC]",Ki,[2],187 ± 23 nM
same,selectivity for the CB2 receptor,[3],25 fold
same,Ki,[3]; [10],5.6 ± 1.7 nM
same,Ratio CB1/CB2,[3],33
"CCCC(C)(C)c1ccc2c(c1)OC(C)(C)[C@@H]1CC=C(CO)C[C@@H]21 [Compound 9c, 1-Deoxy-3-(1′,1′-dimethylbutyl)-11-hydroxy-Δ^8-THC]",Ki,[2],84 ± 16 nM
same,Ki,[3]; [19],3.4 ± 0.5 nM
same,Ratio CB1/CB2,[3],25
"CCCC(C)(C)c1cc(OC)c2c(c1)OC(C)(C)[C@@H]1CC=C(CO)C[C@@H]21 [Compound 11c, 1-Methoxy-3-(1′,1′-dimethylbutyl)-11-hydroxy-Δ^8-THC]",Ki,[2],347 ± 34 nM
same,Ki,[3]; [19],28 ± 1 nM
same,Ratio CB1/CB2,[3],12
"CCCn1c(C)c(C(=O)c2cccc3cc(OC)ccc23)c2ccccc21 [JWH-151, 2-Methyl-1-propyl-3-(6-methoxy-1-naphthoyl)indole]",EC50,[1],12 ± 2.9 nM
same,"efficacy in the [35S]GTPγS assay relative to CP-55,940",[1],highly efficacious
same,Emax,[1]; read-out: Emax (% CP-55940),108 ± 13%
same,Emax,[1]; [15],108 ± 13%
same,Ki,[2],> 10000 nM
same,Ki,[2]; [18],> 10000 nM
same,selectivity for the CB2 receptor,[3],> 333 fold
same,Ki,[3]; [17],30 ± 1 nM
"CCCn1c(C)c(C(=O)c2cccc3ccc(OC)cc23)c2ccccc21 [JWH-160, 2-Methyl-1-propyl-3-(7-methoxy-1-naphthoyl)indole]",Ki,[2]; [9],1570 ± 201 nM
same,Ki,[3]; [11],441 ± 110 nM
"CCCCCn1c(C)c(C(=O)c2cccc3ccc(CC)cc23)c2ccccc21 [JWH-262, 2-Methyl-1-pentyl-3-(7-ethyl-1-naphthoyl)indole]",Ki,[2]; [20],28 ± 3 nM
same,Ki,[3]; [21],5.6 ± 0.7 nM
same,Ratio CB17CB2,[3]; Table 2,5.0
"CCCCc1ccc(C(=O)c2cn(CCC)c3ccccc23)c2ccccc12 [JWH-239, 1-Propyl-3-(4-butyl-1-naphthoyl)indole]",Ki,[2]; [9],342 ± 20 nM
same,Ratio CB17CB2,[3]; Table 2,6.6
same,Ki,[3]; [17],52 ± 6 nM
"CCCc1ccc(C(=O)c2cn(CCC)c3ccccc23)c2ccccc12 [JWH-180, 1-Propyl-3-(4-propyl-1-naphthoyl)indole]",Ki,[2]; [20],26 ± 2 nM
same,Ki,[3]; [21],9.6 ± 2 nM
same,Ratio CB17CB2,[3]; Table 2,2.7
"CCCCCn1c(C)c(C(=O)c2c(OC)ccc3ccccc23)c2ccccc21 [JWH-268, 2-Methyl-1-pentyl-3-(2-methoxy-1-naphthoyl)indole]",Ki,[2]; [16],1380 ± 193 nM
same,Ki,[3]; [17],40 ± 1 nM
"CCCCCn1cc(C(=O)c2ccc(CC)c3ccccc23)c2ccccc21 [JWH-210, 1-Pentyl-3-(4-ethyl-1-naphthoyl)indole]",Ki,[2]; [9],0.46 ± 0.03 nM
same,Ki,[3]; [21],0.69 ± 0.01 nM
same,Ratio CB17CB2,[3]; Table 2,0.67
"CCCCCn1cc(C(=O)c2ccc(CCC)c3ccccc23)c2ccccc21 [JWH-182, 1-Pentyl-3-(4-propyl-1-naphthoyl)indole]",Ki,[2]; [20],0.65 ± 0.03 nM
same,Ki,[3]; [21],1.1 ± 0.1 nM
same,Ratio CB17CB2,[3]; Table 2,0.6
"CCCCCn1c(C)c(C(=O)c2ccc(CC)c3ccccc23)c2ccccc21 [JWH-213, 2-Methyl-1-pentyl-3-(4-ethyl-1-naphthoyl)indole]",Ki,[2]; [20],1.5 ± 0.2 nM
same,Ki,[3]; [21],0.42 ± 0.05 nM
same,Ratio CB17CB2,[3]; Table 2,3.6
"CCCCCn1cc(C(=O)c2cccc3ccc(CC)cc23)c2ccccc21 [JWH-234, 1-Pentyl-3-(7-ethyl-1-naphthoyl)indole]",Ki,[2]; [9],8.4 ± 1.8 nM
same,Ratio CB17CB2,[3]; Table 2,2.2
same,Ki,[3]; [17],3.8 ± 0.6 nM
"CCCCCn1c(C)c(C(=O)c2cccc3cc(OC)ccc23)c2ccccc21 [JWH-153, 2-Methyl-1-pentyl-3-(6-methoxy-1-naphthoyl)indole]",Ki,[2],240 ± 24 nM
same,Ki,[2]; [16],250 ± 24 nM
same,Ki,[3]; [17],11 ± 1 nM
"CCCn1cc(C(=O)c2ccc(C)c3ccccc23)c2ccccc21 [JWH-120, 1-Propyl-3-(4-methyl-1-naphthoyl)indole]",EC50,[1],5.1 ± 1.6 nM
same,"efficacy in the [35S]GTPγS assay relative to CP-55,940",[1],partial agonists
same,Emax,[1]; read-out: Emax (% CP-55940),78.1 ± 10.7%
same,Emax,[1]; [15],78.1 ± 10.7%
same,Ki,[2]; [9],1050 ± 31 nM
same,selectivity for the CB2 receptor,[3],173 fold
same,Ratio CB17CB2,[3]; Table 2,173
same,Ki,[3]; [17],6.1 ± 7 nM
